Bounds are passed on as bounds.

29 compounds from patent US10617680B2 (CELGENE QUANTICEL RESEARCH, INC., priority 2017, dated 2020) can be followed below.

For the first test, the target named is CBP (Homo sapiens (Human), UniProt Q92793). The test is described as follows: In vitro CBP inhibition (AlphaScreen, biotinylated H4-tetraacetyl peptide). The format is binding.
Sequence of CBP (Q92793 1081-1197): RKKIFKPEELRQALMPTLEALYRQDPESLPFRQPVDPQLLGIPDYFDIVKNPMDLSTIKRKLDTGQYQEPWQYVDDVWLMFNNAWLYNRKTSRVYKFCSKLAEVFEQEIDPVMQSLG
Settings: not given
In short, it runs like this: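 His-tagged CBP expressed in E. coli (50 nM final) incubated with biotinylated H4K5/8/12/16(Ac) peptide (20 nM final) in 50 mM HEPES pH 7.3, 10 mM NaCl, 0.25 mM TCEP, 0.1% BSA, 0.005% Brij-35, 0.4% DMSO, 20 min at room temp.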
In general terms: Alpha assays give light when donor and acceptor beads are brought close together.
`Cc1ccccc1-c1cc(=O)n(C)cc1-c1cnn(Cc2ccccc2)c1` [Example 106, 5-(1-benzyl-1H-pyrazol-4-yl)-1-methyl-4-o-tolyl-1H-pyridin-2-one]: the IC50 (commonly the concentration at which inhibition is half-maximal) fell in the range of 500 to 5000 nM.

Staying with this test, now noted: AlphaScreen, Table 29; read-out: CBP IC50.
For the compound `COc1cccc(-c2cc(=O)n(C)cc2-c2cnn(-c3ccccc3C#N)c2)c1` [Example 241, 2-{4-[4-(3-Methoxy-phenyl)-1-methyl-6-oxo-1,6-dihydro-pyridin-3-yl]-pyrazol-1-yl}-benzonitrile], the IC50 was under 500 nM.

With `COc1ccc(-c2cc(=O)n(C)cc2-c2cnn(-c3cccc(C4CC4)c3C#N)c2)cn1` [Example 383, 2-cyclopropyl-6-(4-(6-methoxy-1′-methyl-6′-oxo-1′,6′-dihydro-[3,4′-bipyridin]-3′-yl)-1H-pyrazol-1-yl)benzonitrile], the IC50 is under 500 nM. Take `CCc1ccc(-c2cc(=O)n(C)cc2-c2cnn(-c3ccccc3C#N)c2)cn1` [Example 373, 2-(4-(6-ethyl-1-methyl-6′-oxo-1′,6′-dihydro-[3,4′-bipyridin]-3′-yl)-1H-pyrazol-1-yl)benzonitrile]: the IC50 was under 500 nM. Still for that read-out and setting: in the case of `CC(c1ccccc1)n1cc(-c2cc(F)c(=O)n(C)c2)cn1` (centres unmarked) [Example 26, 3-fluoro-1-methyl-5-(1-(1-phenylethyl)-1H-pyrazol-4-yl) pyridin-2(1H)-one] it was 500 to 5000 nM; in that of `Cn1cc(-c2cnn(-c3cccc(C4CC4)c3C#N)c2)c(-c2ccn(CCF)c(=O)c2)cc1=O` [Example 389, 2-cyclopropyl-6-[4-[4-[1-(2-fluoroethyl)-2-oxo-4-pyridyl]-1-methyl-6-oxo-3-pyridyl]pyrazol-1-yl]benzonitrile], under 500 nM; in that of `Cn1cc(-c2cnn(C3CCN(S(C)(=O)=O)CC3)c2)c(-c2ccccc2)cc1=O` [Example 127, 1-methyl-5-(1-(1-(methyl-sulfonyl)-piperidin-4-yl)-1H-pyrazol-4-yl)-4-phenylpyridin-2(1H)-one], under 500 nM. As for `Cn1cc(-c2cnn(Cc3ccccc3)c2)c(-c2ccncc2)cc1=O` [Example 124, 5-(1-benzyl-1H-pyrazol-4-yl)-1-methyl-[4,4′-bipyridin]-2(1H)-one], the IC50 is under 500 nM. For `CNC(=O)[C@H]1CCN(c2cc(=O)n(C)cc2-c2cnn(Cc3ccccc3)c2)C1` [Example 93, 1-[5-(1-benzyl-1H-pyrazol-4-yl)-1-methyl-2-oxo-1,2-dihydro-pyridin-4-yl]-pyrrolidine-3-methylacetamide], the IC50 is under 500 nM. `COc1ccc(-c2cc(=O)n(C)cc2-c2cnn(-c3ccccc3F)c2)cn1` [Example 319]: the IC50 was under 500 nM. For the compound `CC(C)n1cc(-c2cn(C)c(=O)cc2-c2ccccc2)cn1` [Example 138, 5-(1-isopropyl-1H-pyrazol-4-yl)-1-methyl-4-phenylpyridin-2(1H)-one], the IC50 is under 500 nM. For the compound `CCOc1cc(=O)n(C)cc1-c1cnn(-c2ccccc2C(N)=O)c1` [Example 282, 2-(4-(4-ethoxy-1-methyl-6-oxo-1,6-dihydropyridin-3-yl)-1H-pyrazol-1-yl)benzamide], the IC50 is under 500 nM. Still for that read-out and setting: in the case of `CCOc1cc(=O)n(C)cc1-c1cnn(-c2ccccc2Cl)c1` [Example 97, 5-(1-(2-chloro-phenyl)-1H-pyrazol-4-yl)-4-ethoxy-1-methyl-pyridin-2(1H)-one] it was under 500 nM. Consider `Cn1cc(-c2cnn(CC3CC3(F)F)c2)c(-c2ccccc2)cc1=O` (centres unmarked) [Example 190, 5-[1-(2,2-Difluoro-cyclopropylmethyl)-1H-pyrazol-4-yl]-1-methyl-4-phenyl-1H-pyridin-2-one], for which the IC50 is under 500 nM. As to `CC(c1cccnc1)n1cc(-c2ccc(=O)n(C)c2)cn1` (centres unmarked) [Example 24, 1-methyl-5-(1-(1-(pyridin-3-yl)ethyl)-1H-pyrazol-4-yl)pyridin-2(1H)-one], the IC50 fell in the range of 500 to 5000 nM.

Take `Cn1cc(-c2cnn(Cc3ccccn3)c2)ccc1=O` [Example 5, 1-methyl-5-(1-(pyridin-2-ylmethyl)-1H-pyrazol-4-yl)pyridin-2(1H)-one]: the IC50 was in the range of 500 to 5000 nM.

Take `CCNc1ccc(-c2cc(=O)n(C)cc2-c2cnn(-c3cccc(Cl)c3C#N)c2)cn1` [Example 342, 2-chloro-6-(4-(6-(ethylamino)-1′-methyl-6′-oxo-1′,6′-dihydro-[3,4′-bipyridin]-3′-yl)-1H-pyrazol-1-yl)benzonitrile]: the IC50 was under 500 nM. Turning to `CC(C)Cn1cc(-c2cn(C)c(=O)cc2-c2ccccc2)cn1` [Example 137, 5-(1-isobutyl-1H-pyrazol-4-yl)-1-methyl-4-phenylpyridin-2(1H)-one], the IC50 is under 500 nM. As to `CCOc1cc(=O)n(C)cc1-c1cnn(-c2cc(OC3CC3)ccc2C#N)c1` [Example 184, 4-Cyclopropoxy-2-[4-(4-ethoxy-1-methyl-6-oxo-1,6-dihydro-pyridin-3-yl)-pyrazol-1-yl]-benzonitrile], the IC50 was under 500 nM. Take `Cn1cc(-c2cnn(-c3ccccc3C(=O)NC#N)c2)c(-c2ccc(Cl)cc2)cc1=O` [Example 291, 2-(4-(4-(4-chlorophenyl)-1-methyl-6-oxo-1,6-dihydropyridin-3-yl)-1H-pyrazol-1-yl)-N-cyanobenzamide]: the IC50 is under 500 nM. As for `CC(c1ccccc1)n1cc(-c2ccc(=O)n(C)c2)cn1` (centres unmarked) [Example 12, 1-methyl-5-(1-(1-phenylethyl)-1H-pyrazol-4-yl)pyridin-2(1H)-one], the IC50 fell in the range of 500 to 5000 nM. Turning to `CCCOc1cc(=O)n(C)cc1-c1cnn(Cc2ccccc2)c1` [Example 165, 5-(1-Benzyl-1H-pyrazol-4-yl)-1-methyl-4-propoxy-1H-pyridin-2-one], the IC50 is under 500 nM. `Cn1cc(-c2cn(C)c(=O)cc2C2CCCC2)cn1` [Example 142, 4-cyclopentyl-1-methyl-5-(1-methyl-1H-pyrazol-4-yl) pyridin-2(1H)-one]: the IC50 was 500 to 5000 nM. As to `Cn1cc(-c2cnn3c2CCC3)c(-c2ccccc2)cc1=O` [Example 162, 5-(5,6-dihydro-4H-pyrrolo[1,2-b]pyrazol-3-yl)-1-methyl-4-phenylpyridin-2(1H)-one], the IC50 is under 500 nM.

For `COc1ccc(-c2cc(=O)n(C)cc2-c2cnn(-c3cccc(Cl)c3C#N)c2)cn1` [Example 277, 2-Chloro-6-[4-(6-methoxy-1′-methyl-6′-oxo-1′,6′-dihydro-[3,4′]bipyridinyl-3′-yl)-pyrazol-1-yl]-benzonitrile], the IC50 is under 500 nM. `Cn1cc(-c2cnn(-c3cccc(F)c3C#N)c2)c(-c2cnc(N3CCCC3)nc2)cc1=O` [Example 336, 2-fluoro-6-[4-[1-methyl-6-oxo-4-(2-pyrrolidin-1-ylpyrimidin-5-yl)-3-pyridyl]pyrazol-1-yl]benzonitrile]: the IC50 is under 500 nM.

In the case of `COCCNc1ncc(-c2cc(=O)n(C)cc2-c2cnn(-c3ccccc3C#N)c2)cn1` [Example 324, 2-(4-(4-(2-((2-methoxyethyl)amino)pyrimidin-5-yl)-1-methyl-6-oxo-1,6-dihydropyridin-3-yl)-1H-pyrazol-1-yl)benzonitrile], the IC50 is under 500 nM. The same measure, in the same setting: in the case of `CNc1ncc(-c2cc(=O)n(C)cc2-c2cnn(C(C)c3ccccc3)c2)cn1` (centres unmarked) [Example 309, 1-methyl-4-(2-(methylamino)pyrimidin-5-yl)-5-(1-(1-phenylethyl)-1H-pyrazol-4-yl)pyridin-2(1H)-one] it was under 500 nM; in that of `CCOc1cc(=O)n(C)cc1-c1cn(Cc2ccccc2)nc1N` [Example 186, 5-(3-amino-1-benzyl-1H-pyrazol-4-yl)-4-ethoxy-1-methylpyridin-2(1H)-one], under 500 nM.
